Data on one compound can be found in paper PMC6017357, “In Vitro Inhibitory Effects of Synthetic Cannabinoid EAM-2201 on Cytochrome P450 and UDP-Glucuronosyltransferase Enzyme Activities in Human Liver Microsomes” (Molecules : A Journal of Synthetic Chemistry and Natural …, 2018).

The data set has as its target CYP3A4 (Homo sapiens, UniProt P08684). Put plainly: CYP3A4-mediated midazolam 1′-hydroxylation in human liver microsomes (IC50 and time-dependent inhibition). In kind it is in vitro ADME. More on the design: from tissue; host or cells: ultrapooled human liver microsomes. The protocol:
The inhibitory potential (IC50 values) of EAM-2201 on CYP1A2, CYP2A6, CYP2C8, CYP2C9, CYP2C19, CYP2D6 and CYP3A4 were evaluated using ultrapooled human liver microsomes and a cocktail of seven CYP substrates followed by LC-tandem mass spectrometry (LC-MS/MS) as previously described. Each incubation mixture was prepared in a total volume of 100 µL as follows: pooled human liver microsomes (5.2 pmol CYP), 1.0 mM NADPH, 10 mM magnesium chloride, 50 mM potassium phosphate buffer (pH 7.4), various concentrations of EAM-2201 in DMSO (final concentrations of 0.1–50 µM, 0.5% DMSO) and a cocktail of seven CYP probe substrates in 50% acetonitrile (0.5% acetonitrile), including 50 µM phenacetin, 2.5 µM coumarin, 2.0 µM amodiaquine, 10 µM diclofenac, 100 µM [S]-mephenytoin, 5 µM bufuralol and 2.5 µM midazolam in 50% acetonitrile. After a 3-min preincubation at 37 °C, the reactions were initiated by adding NADPH and incubation proceeded for 15 min at 37 °C in a shaking water bath. The reactions were stopped by adding 100 µL of ice-cold methanol containing internal standards (^13C2,^15N-acetaminophen for acetaminophen and N-desethylamodiaquine; d9-1′-hydroxybufuralol for 4′-hydroxydiclofenac, 7-hydroxycoumarin, 4′-hydroxymephenytoin, 1′-hydroxybufuralol and 1′-hydroxy-midazolam). The incubation mixtures were centrifuged at 13,000× g for 4 min at 4 °C and 50 µL of each supernatant was diluted in 50 µL of water. Aliquots (5 µL) of the diluted supernatants were analyzed using LC-MS/MS. All assays were performed in triplicate and the mean values were used in calculations. […] Each reaction was initiated by adding the seven-CYP probe substrate cocktail described above.
The time-dependent inhibitory effects of EAM-2201 on CYP2C8, CYP2C9, CYP2C19 and CYP3A4 activities in ultrapooled human liver microsomes were evaluated using time- and concentration-dependent inhibition assays. Ultrapooled human liver microsomes (26.0 pmol CYP) were pre-incubated with various concentrations of EAM-2201 in DMSO (0.5% DMSO) in 50 mM potassium phosphate buffer (pH 7.4) in the presence of NADPH for predetermined time periods: 5–15 min for CYP2C8 activity, 5–20 min for CYP2C9 activity and 15–40 min for CYP2C19 and CYP3A4 activities. […] Aliquots (5 µL) of the diluted supernatants were analyzed using LC-MS/MS.
The metabolites formed from CYP substrates were simultaneously quantified using our previously described LC-MS/MS method. […]
(Liver microsomes are a subcellular fraction often used to study metabolism.)

pIC50: −log10 of the molar value.

Chain of CYP3A4 (P08684 whole entry): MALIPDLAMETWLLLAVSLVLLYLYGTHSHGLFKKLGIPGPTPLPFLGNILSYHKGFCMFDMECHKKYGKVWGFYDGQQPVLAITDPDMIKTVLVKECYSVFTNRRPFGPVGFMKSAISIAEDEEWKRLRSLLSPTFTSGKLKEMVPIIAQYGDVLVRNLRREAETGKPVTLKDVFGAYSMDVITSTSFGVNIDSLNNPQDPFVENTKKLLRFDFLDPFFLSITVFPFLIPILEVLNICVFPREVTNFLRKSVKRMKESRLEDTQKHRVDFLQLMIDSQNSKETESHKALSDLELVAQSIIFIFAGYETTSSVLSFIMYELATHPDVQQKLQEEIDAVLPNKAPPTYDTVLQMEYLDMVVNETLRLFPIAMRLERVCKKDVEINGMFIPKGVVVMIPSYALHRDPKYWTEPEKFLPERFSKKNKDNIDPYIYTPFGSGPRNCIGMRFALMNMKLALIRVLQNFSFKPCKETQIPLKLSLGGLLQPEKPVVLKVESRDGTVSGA

`CCc1ccc(C(=O)c2cn(CCCCCF)c3ccccc23)c2ccccc12` [EAM-2201, (4-ethyl-1-naphthalenyl)[1-(5-fluoropentyl)-1H-indol-3-yl]-methanone] had a pIC50 of 4.75. Also, the “kinact/Ki value for CYP3A4” value (human liver microsomes) amounted to 102 M⁻¹ s⁻¹. Further, the kinact (human, ultrapooled human liver microsomes, pH 7.4, probe midazolam (2 µM), 1′-hydroxylation, read-out: kinact, time-dependent inhibition of CYP3A4 midazolam 1′-hydroxylase (converted)) is 0.000417 s⁻¹. In addition, the “inhibition of CYP3A4-mediated midazolam 1′-hydroxylation” value (up to 50 µM, without 30-min preincubation, human liver microsomes) is recorded as “negligibly inhibited”.

In general, pIC50 refers to −log10 of the IC50, conventionally taken in molar units. Read a low pIC50 as a high IC50. What is called kinact is the maximal first-order rate at which the target is inactivated.
